Test results taken from publication PMC11973282, “RAS70 peptide targets multiforme glioblastoma by binding to the plasma membrane heat shock protein HSP70” (Frontiers in Oncology, 2025).

Experiments:
primary GBM IBD cells = assay: Cell motility analysis; format: cell-based, human; settings: 56 h recording
Procedure: The cell speed of the primary GBM culture was determined using Image ExFluorer, an automatic cell imaging device (LCI, Korea). The cells were seeded into 24-well plates, and the cell nuclei were labelled with the fluorescent dye Hoechst 33342. The plates were then placed in an integrated incubator with temperature control (37°C) and 5% CO2. The fluorescence was stimulated at 405 nm using a long-focus semi-apochromatic 20× lens with a numerical aperture of 0.45. The primary IBD cell line was divided into 4 wells, each with five visual fields: two untreated wells on distinct matrices (Collagen I and Fibrinogene) and two wells containing RAS70 peptide on matrices.
FOVs were captured every 15 minutes over 56 hours, resulting in images with a resolution of 2.560 × 2.160 pixels (0.33 μm/px). Real-time focus correction was used. The captured frames were analyzed using the NIS-Elements software with a module for automatic segmentation, quantification, and tracking of individual cells. Cell nuclei (with a diameter of more than 2.5 μm) were recognized in images, and the X-Y coordinates of the nuclei were recorded. Cell movement tracks were built according to the coordinates of the nuclei, and the motility metrics (average speed, maximal speed, and track straightness) were calculated.
Additionally, we evaluated the effect of RAS70 peptide on cell motility of primary glioblastoma culture. In order to investigate the possible influence of the RAS70 peptide on the invasive capacity of tumor cells, we conducted an experiment in which we recorded cell motility on two different substrates (Collagen I, Fibrinogen) for 56 h.

[1] = system: human U87 glioblastoma cells; assay: Flow cytometry of FITC-labeled peptide internalization, 24 h (also with antibody pre-treatment); format: cell-based; settings: for peptide internalization after pre-treatment with anti-Hsp70 antibodies: cells pre-treated with anti-Hsp70 mAbs SPA-810, SPA-815 (1:250); for peptide uptake after pre-treatment with both anti-Hsp70 and anti-αvβ3/-αvβ5 mAbs: combination of antibodies; for mean fluorescence intensity (MFI), internalization of FITC-labeled peptide: U87, 50 μg/mL, 24 hours, flow cytometry, M ± SE, 3 independent experiments
Procedure: The binding of the TKD-sCy5, RAS70-sCy5, and NGL-RGD-sCy5 peptides were analyzed using a CytoFLEX flow cytometer (Beckman Coulter, USA). A single cell suspension of C6, GL261, T98G, U87, U251, ANI, IBD, TMS (0.15×10^6 cells in mL^-1) were incubated for 30 minutes on ice in the dark with peptides in concentration of 75 μg/mL, and then washed with cold PBS solution. Cells without peptides were used as controls. To evaluate incorporation of the fluorescently-labeled peptides for longer period of co-incubation of 24 h cells (C6, GL261, U87, U251) were treated with FITC-labeled peptides, then washed with PBS and assessed on a CytoFLEX flow cytometer (Beckman Coulter, USA). Following FACS analysis cell pellet was further evaluated employing confocal microscopy Leica TCS SP8 (Leica Microsystems, Germany).
The incorporation of peptides over longer periods of co-incubation with brain tumor cells was additionally analyzed using a Cytomics FC500 flow cytometer (BeckmanCoulter, USA). Tumor cells (C6, GL261, U87, U251) were incubated with peptides (concentration 50 μg/mL) for 24 hours, washed with PBS. Internalization of FITC-labeled peptides was assessed by determining the mean fluorescence intensity (MFI). According to the study data ( Figure 6A ), it was shown that TKD peptide accumulated in all cell lines – 2120 ± 152 (C6), 2099 ± 107 (GL261), 2145 ± 189 (U87), 2373 ± 201 (U251) compared to the control scramble peptide (NGL) – 378 ± 48 (C6), 344 ± 57 (GL261), 301 ± 66 (U87), 313 ± 56 (U251) (P<0.001). […] Following FACS analysis the cell pellet was collected and evaluated for peptides cell uptake employing confocal microscopy ( Figure 6B ). The obtained microscopy data confirmed higher accumulation of RAS70 peptide in studied cell lines as compared to TKD or scramble peptides.
Figure 6 Evaluation of the mHsp70-targeting peptides internalization by glioma cells. (A) Flow cytometric evaluation of FITC-labeled peptide accumulation in tumor cell lines (rat glioma C6, mouse glioma GL261, human glioblastoma U87 and U251) after co-incubation for 24 hours. […] (B) Confocal microscopy assessment of FITC-labeled peptide accumulation in tumor cell lines (rat glioma C6, mouse glioma GL261, human glioblastoma U87 and U251) after co-incubation for 24 hours. […] (C) Analysis of the peptides uptake by human U87 glioblastoma cells following co-incubation for 24 hours.
To evaluate the mHsp70-mediated uptake of the peptides prior to co-incubation with either TKD or RAS70 peptides cells were pre-treated with anti-Hsp70 antibodies (SPA-810, SPA-815) that are known to target the membrane-bound chaperone on cancer cells ([37]). […] The tripeptide RGD (Arg-Gly-Asp) motif is known to bind to integrins, including αvβ3 and αvβ5 expressed on brain tumor cells and tumor endothelial cells ([38], [39]). […] As expected, we observed the decrease of NGL-RGD and RAS70 internalization by tumor cells but not of TKD or NGL peptides ( Figure 6C ).

Compound | effect on average cell speed (primary GBM IBD cells; IBD cells on Collagen I) | effect on maximum cell speed (primary GBM IBD cells; IBD cells on Collagen I) | effect on track straightness (primary GBM IBD cells; IBD cells on Collagen I) | effect on motility metrics (average speed, max speed, track straightness) (primary GBM IBD cells; IBD cells on fibrinogen) | peptide internalization after pre-treatment with anti-Hsp70 antibodies ([1]; U87, 24 hours) | peptide internalization after pre-treatment with anti-αvβ3 and -αvβ5 antibodies ([1]; U87, 24 hours, cells pre-treated with anti-αvβ3 (LM609) and anti-αvβ5 (P1F6) mAbs (1:200)) | peptide uptake after pre-treatment with both anti-Hsp70 and anti-αvβ3/-αvβ5 mAbs ([1]; U87, 24 hours) | mean fluorescence intensity (MFI), internalization of FITC-labeled peptide [1]
CC(C)C[C@H](NC(=O)[C@H](CC(C)C)NC(=O)[C@H](CC(N)=O)NC(=O)[C@H](CC(N)=O)NC(=O)[C@H](CC(=O)O)NC(=O)[C@H](CCCCN)NC(=O)[C@@H](N)[C@@H](C)O)C(=O)NCC(=O)N[C@@H](CCCNC(=N)N)C(=O)N[C@@H](Cc1ccccc1)C(=O)N[C@@H](CCC(=O)O)C(=O)N[C@@H](CC(C)C)C(=O)N[C@@H](CO)C(=O)NCC(=O)NCCC(=O)N[C@@H](CCCNC(=N)N)C(=O)NCC(=O)N[C@@H](CC(=O)O)C(=O)O [RAS70] | no effect on the average cell speed | slightly diminished maximum cell speed | increased the straightness of the trajectories | did not affect any of the measured motility metrics | significant decrease | decrease | significant abrogation | 2999 ± 209
CC(C)C[C@H](NC(=O)[C@H](CC(C)C)NC(=O)[C@H](CC(N)=O)NC(=O)[C@H](CC(N)=O)NC(=O)[C@H](CC(=O)O)NC(=O)[C@H](CCCCN)NC(=O)[C@@H](N)[C@@H](C)O)C(=O)NCC(=O)N[C@@H](CCCNC(=N)N)C(=O)N[C@@H](Cc1ccccc1)C(=O)N[C@@H](CCC(=O)O)C(=O)N[C@@H](CC(C)C)C(=O)N[C@@H](CO)C(=O)NCC(=O)O [TKD] | – | – | – | – | significant decrease | – | significant abrogation | 2145 ± 189
